Laboratory results reported in US9302999B2, “Substituted triazoles as herbicides” (E. I. DU PONT DE NEMOURS AND COMPANY, priority 2012, dated 2016).
Where two headings read alike, the source gives them in different places.

What was measured:
Type in all cases: in vivo
[1] = system: velvetleaf (Abutilon theophrasti); test: Test A pre-/postemergence: velvetleaf; conditions: for pest or weed control at 125 g/ha / pest or weed control at 500 g/ha: Abutilon theophrasti, 240 h
Summary of the method: (§1)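 Each species received preemergence soil-directed spraying and, at the same time, postemergence treatment of seedlings 2–10 cm tall. Formulation: non-phytotoxic solvent mixture including surfactant. Response assessed visually about ten days on, relative to untreated controls, 0–100 scale.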

[2] = system: sedge, umbrella (small-flower umbrella sedge Cyperus difformis); test: Test B flooded paddy: sedge, umbrella; conditions: Flood, applied to paddy water at 2-leaf stage, visually evaluated after 13 to 15 days
Summary of the method: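 Plants were grown to the 2-leaf stage, then pots were flooded to 3 cm above the soil and compounds were applied directly into the paddy water. Water depth was held for the whole test; after 13 to 15 days in a greenhouse, injury was visually rated against untreated controls (0 = no effect, 100 = complete control).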

[3] = system: wheat (Triticum aestivum); test: Test A pre-/postemergence: wheat; conditions: for plant injury at 125 g/ha / plant injury at 500 g/ha: Triticum aestivum, 240 h
Summary of the method: as §1

Oilseed Rape = test: Test C pre-/postemergence: oilseed rape; conditions: scale 0 to 100, 0 no effect, 100 complete control
[4] = system: winter wheat (Triticum aestivum); test: Test C pre-/postemergence: winter wheat
Summary of the method: (§2)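 Preemergence on seeds in loam/sand, postemergence on 2–18 cm (1–4-leaf) plants in peat-based medium; compounds in non-phytotoxic solvent with surfactant. After 13–15 days in greenhouse, visual rating versus controls, 0 (no effect) to 100 (complete control).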

[5] = system: foxtail, giant (giant foxtail, Setaria faberii); test: Test A pre-/postemergence: foxtail, giant; conditions: for pest or weed control at 125 g/ha / pest or weed control at 500 g/ha: Setaria faberi, 240 h
Summary of the method: as §1

[6] = system: nutsedge, yellow (yellow nutsedge, Cyperus esculentus); test: Test C pre-/postemergence: nutsedge, yellow
Summary of the method: as §2

[7] = system: chickweed (common chickweed, Stellaria media); test: Test C postemergence: chickweed
Summary of the method: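 Greenhouse pot test; foliar postemergence treatment at 1- to 4-leaf stage. Rated visually at 13 to 15 days on a 0–100 control scale relative to untreated plants.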

corn (Zea mays) = test: Test A pre-/postemergence: corn
Summary of the method: as §1

[8] = system: pigweed (Amaranthus retroflexus); test: Test C pre-/postemergence: pigweed
Summary of the method: as §2

[9] = Postemergence, 125 g ai/ha, 0 to 100 scale, 0 is no effect, 100 is complete control
[10] = Postemergence, 500 g ai/ha, visual rating on 0 to 100 scale (0 no effect, 100 complete control), approximately ten days
[11] = Preemergence, 125 g ai/ha, 0 to 100 scale where 0 is no effect and 100 is complete control
[12] = Preemergence, 500 g ai/ha, 0 to 100 scale (0 no effect, 100 complete control)
[13] = Postemergence, 16 g ai/ha, scale 0 to 100, 0 no effect, 100 complete control
[14] = Postemergence, 31 g ai/ha, scale 0 to 100 (0 no effect, 100 complete control)
[15] = Postemergence, 62 g ai/ha, scale 0 to 100 (0 no effect, 100 complete control)
[16] = Postemergence, 125 g ai/ha, scale 0 to 100, 0 no effect, 100 complete control
[17] = Preemergence, 16 g ai/ha, scale 0 (no effect) to 100 (complete control)
[18] = Preemergence, 62 g ai/ha, scale of 0 to 100, 0 is no effect, 100 is complete control
[19] = Preemergence, 125 g ai/ha, scale 0 to 100, 0 no effect, 100 complete control
[20] = Preemergence, 31 g ai/ha, scale of 0 to 100, 0 is no effect, 100 is complete control
[21] = 31 g ai/ha, scale 0 to 100 (0 no effect, 100 complete control)
[22] = 62 g ai/ha, scale 0 to 100 (0 no effect, 100 complete control)
[23] = 125 g ai/ha, scale 0 to 100, 0 no effect, 100 complete control
[24] = Postemergence, 250 g ai/ha, scale 0 to 100
[25] = Preemergence, 31 g ai/ha, scale 0 (no effect) to 100 (complete control)
[26] = Preemergence, 250 g ai/ha, scale 0 to 100, 0 no effect, 100 complete control

SMILES: FCc1nn(-c2ccc(F)cc2)nc1Oc1ccnc(C(F)(F)F)c1 [Compound 160]
- Plant response rating, Velvetleaf [1, 9]: 90
- Velvetleaf plant response rating [1, 10]: 100
- Plant response rating, Velvetleaf [1, 11]: 50
- Plant response rating, Velvetleaf [1, 12]: 70
- Plant response rating, Sedge, Umbrella (0 to 100 scale, 0 is no effect, 100 is complete control) ([2]; 250 g ai/ha): 85
- Plant response rating, Wheat [3, 9]: 40
- Wheat plant response rating [3, 10]: 50
- Plant response rating, Wheat [3, 11]: 30
- Plant response rating, Wheat [3, 12]: 50
- Plant response rating, Oilseed Rape (Oilseed Rape; Postemergence, 16 g ai/ha): 85
- Plant response rating, Wheat [4, 13]: 5
- Plant response rating, Wheat [4, 14]: 5
- Plant response rating, Wheat [4, 15]: 25
- Plant response rating, Wheat [4, 16]: 25
- Plant response rating, Wheat [4, 17]: 0
- Plant response rating, Wheat [4, 18]: 15
- Plant response rating, Wheat [4, 19]: 40
- Plant response rating, Foxtail, Giant [5, 9]: 90
- Foxtail, Giant plant response rating [5, 10]: 90
- Plant response rating, Foxtail, Giant [5, 11]: 100
- Plant response rating, Foxtail, Giant [5, 12]: 100
- Plant response rating, Nutsedge, Yellow [6, 13]: 5
- Plant response rating, Nutsedge, Yellow [6, 14]: 10
- Plant response rating, Nutsedge, Yellow [6, 15]: 10
- Plant response rating, Nutsedge, Yellow [6, 16]: 15
- Plant response rating, Nutsedge, Yellow [6, 17]: 0
- Plant response rating, Nutsedge, Yellow [6, 20]: 0
- Plant response rating, Nutsedge, Yellow [6, 18]: 0
- Plant response rating, Nutsedge, Yellow [6, 19]: 0
- Plant response rating, Chickweed ([7]; 16 g ai/ha, scale 0 to 100, 0 no effect, 100 complete control): 70
- Plant response rating, Chickweed [7, 21]: 90
- Plant response rating, Chickweed [7, 22]: 95
- Plant response rating, Chickweed [7, 23]: 98
- Plant response rating, Corn (corn (Zea mays); [9]): 30
- Corn plant response rating (corn (Zea mays); [10]): 60
- Plant response rating, Corn (corn (Zea mays); [11]): 20
- Plant response rating, Corn (corn (Zea mays); [12]): 40
- Plant response rating, Pigweed [8, 13]: 95
- Plant response rating, Pigweed [8, 14]: 95
- Plant response rating, Pigweed [8, 15]: 98
- Plant response rating, Pigweed [8, 16]: 98
- Plant response rating, Pigweed [8, 17]: 90
- Plant response rating, Pigweed [8, 20]: 100
- Plant response rating, Pigweed [8, 18]: 100
- Plant response rating, Pigweed [8, 19]: 100

SMILES: CCOc1nn(-c2ccc(C(F)(F)F)cc2)nc1Cc1ccnc(C(F)(F)F)c1 [Compound 164, 4-[[5-ethoxy-2-[4-(trifluoromethyl)phenyl]-2H-1,2,3-triazol-4-yl]methyl]-2-(trifluoromethyl)pyridine]
- pest or weed control at 125 g/ha ([1]; post-emergence, Postemergence, 125 g ai/ha, 0 to 100 scale, 0 is no effect, 100 is complete control, read-out: Plant response rating, Velvetleaf): 100%
- pest or weed control at 500 g/ha ([1]; post-emergence, Postemergence, 500 g ai/ha, 0 to 100 scale, 0 is no effect, 100 is complete control, read-out: Velvetleaf plant response rating): 100%
- pest or weed control at 125 g/ha ([1]; pre-emergence, Preemergence, 125 g ai/ha, 0 to 100 scale where 0 is no effect and 100 is complete control, read-out: Plant response rating, Velvetleaf): 80%
- pest or weed control at 500 g/ha ([1]; pre-emergence, Preemergence, 500 g ai/ha, 0 to 100 scale (0 no effect, 100 complete control), read-out: Plant response rating, Velvetleaf): 100%
- Plant response rating, Sedge, Umbrella (0 to 100 scale, 0 is no effect, 100 is complete control) ([2]; 125 g ai/ha): 75
- plant injury at 125 g/ha ([3]; post-emergence, Postemergence, 125 g ai/ha, 0 to 100 scale, 0 is no effect, 100 is complete control, read-out: Plant response rating, Wheat): 50%
- plant injury at 500 g/ha ([3]; post-emergence, Postemergence, 500 g ai/ha, 0 to 100 scale, 0 is no effect, 100 is complete control, read-out: Wheat plant response rating): 60%
- plant injury at 125 g/ha ([3]; pre-emergence, Preemergence, 125 g ai/ha, 0 to 100 scale where 0 is no effect and 100 is complete control, read-out: Plant response rating, Wheat): 50%
- plant injury at 500 g/ha ([3]; pre-emergence, Preemergence, 500 g ai/ha, 0 to 100 scale (0 no effect, 100 complete control), read-out: Plant response rating, Wheat): 60%
- Plant response rating, Oilseed Rape (Oilseed Rape; Preemergence, 250 g ai/ha): 30
- Plant response rating, Wheat [4, 14]: 5
- Plant response rating, Wheat [4, 15]: 10
- Plant response rating, Wheat [4, 16]: 10
- Plant response rating, Wheat [4, 24]: 10
- Plant response rating, Wheat [4, 25]: 0
- Plant response rating, Wheat [4, 18]: 0
- Plant response rating, Wheat [4, 19]: 0
- Plant response rating, Wheat [4, 26]: 5
- pest or weed control at 125 g/ha ([5]; post-emergence, Postemergence, 125 g ai/ha, 0 to 100 scale, 0 is no effect, 100 is complete control, read-out: Plant response rating, Foxtail, Giant): 90%
- pest or weed control at 500 g/ha ([5]; post-emergence, Postemergence, 500 g ai/ha, 0 to 100 scale, 0 is no effect, 100 is complete control, read-out: Foxtail, Giant plant response rating): 90%
- pest or weed control at 125 g/ha ([5]; pre-emergence, Preemergence, 125 g ai/ha, 0 to 100 scale where 0 is no effect and 100 is complete control, read-out: Plant response rating, Foxtail, Giant): 100%
- pest or weed control at 500 g/ha ([5]; pre-emergence, Preemergence, 500 g ai/ha, 0 to 100 scale (0 no effect, 100 complete control), read-out: Plant response rating, Foxtail, Giant): 100%
- Plant response rating, Nutsedge, Yellow [6, 14]: 0
- Plant response rating, Nutsedge, Yellow [6, 15]: 5
- Plant response rating, Nutsedge, Yellow [6, 16]: 5
- Plant response rating, Nutsedge, Yellow [6, 24]: 10
- Plant response rating, Nutsedge, Yellow [6, 25]: 0
- Plant response rating, Nutsedge, Yellow [6, 18]: 0
- Plant response rating, Nutsedge, Yellow [6, 19]: 0
- Plant response rating, Nutsedge, Yellow [6, 26]: 0
- Plant response rating, Chickweed [7, 21]: 10
- Plant response rating, Chickweed [7, 22]: 40
- Plant response rating, Chickweed [7, 23]: 45
- Plant response rating, Chickweed ([7]; 250 g ai/ha, scale 0 to 100): 45
- Corn plant response rating (crop injury, 0 = no effect, 100 = complete kill) at 125 g/ha (corn (Zea mays); Zea mays, post-emergence, 240 h, Postemergence, 125 g ai/ha, 0 to 100 scale, 0 is no effect, 100 is complete control): 30%
- plant injury at 500 g/ha (corn (Zea mays); Zea mays, post-emergence, 240 h, Postemergence, 500 g ai/ha, 0 to 100 scale, 0 is no effect, 100 is complete control, read-out: Corn plant response rating): 40%
- Corn plant response rating (crop injury, 0 = no effect, 100 = complete kill) at 125 g/ha (corn (Zea mays); Zea mays, pre-emergence, 240 h, Preemergence, 125 g ai/ha, 0 to 100 scale where 0 is no effect and 100 is complete control): 30%
- Corn plant response rating (crop injury, 0 = no effect, 100 = complete kill) at 500 g/ha (corn (Zea mays); Zea mays, pre-emergence, 240 h, Preemergence, 500 g ai/ha, 0 to 100 scale (0 no effect, 100 complete control)): 30%
- Plant response rating, Pigweed [8, 14]: 50
- Plant response rating, Pigweed [8, 15]: 75
- Plant response rating, Pigweed [8, 16]: 80
- Plant response rating, Pigweed [8, 24]: 80
- Plant response rating, Pigweed [8, 25]: 10
- Plant response rating, Pigweed [8, 18]: 35
- Plant response rating, Pigweed [8, 19]: 90
- Plant response rating, Pigweed [8, 26]: 100
